The record followed here is ChEMBL document CHEMBL1132803, “L-Selenohomocysteine: one-step synthesis from L-selenomethionine and kinetic analysis as substrate for methionine synthases” (Bioorg Med Chem Lett, 2000).

The nature of data set [1]: Second order rate constant was determined. The class given is ADME.
A short description of data set [2]: Specific activity of compound was determined. The format is ADME.

For orientation: Km means the concentration of substrate that gives half-maximal velocity. For the molecule `NC(CCS)C(=O)O` (configuration not stated) [HOMOCYSTEINE], the Km in data set [1] is 69 µM. This molecule also had a Specific activity in data set [2] of 0.23 µM/min/mg.
